Legend:
Assay type in all cases: biochemical
SELENBP1 = biological target: T1, SELENBP1 (Homo sapiens, UniProt Q13228); test: coupled MGL assay, H2S (lead acetate paper) and H2O2 (fluorometric); conditions: Cu cofactor, HBS pH 7.4, 37 °C, 3 h
T1 construct: Strep-tagged recombinant, E. coli BL21 or KRX, Strep-Tactin XT purified, 56 kDa
T1 sequence (Q13228 2-472): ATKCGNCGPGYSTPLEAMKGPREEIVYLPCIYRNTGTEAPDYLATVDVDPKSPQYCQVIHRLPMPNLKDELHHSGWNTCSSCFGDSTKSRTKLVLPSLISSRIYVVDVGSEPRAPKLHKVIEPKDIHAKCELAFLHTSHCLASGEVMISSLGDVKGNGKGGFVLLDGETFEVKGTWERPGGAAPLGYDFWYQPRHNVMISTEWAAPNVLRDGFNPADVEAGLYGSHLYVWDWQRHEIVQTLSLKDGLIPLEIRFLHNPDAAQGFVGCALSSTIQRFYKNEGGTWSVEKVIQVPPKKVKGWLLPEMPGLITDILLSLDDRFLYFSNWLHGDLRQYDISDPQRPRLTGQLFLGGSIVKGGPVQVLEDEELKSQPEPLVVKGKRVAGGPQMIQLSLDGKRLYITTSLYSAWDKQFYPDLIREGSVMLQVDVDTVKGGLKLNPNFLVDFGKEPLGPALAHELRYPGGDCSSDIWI

SEMO-1 = biological target: T2, SEMO-1 (Caenorhabditis elegans, UniProt Q9XXF9); test: as above; conditions: Cu cofactor; methanethiol generated in situ from L-methionine; HBS pH 7.4; 37 °C, 3 h
T2 construct: Strep-tagged recombinant, E. coli BL21 or KRX, Strep-Tactin XT purified

[1] = biological target: T3, methionine gamma-lyase (MGL) (Brevibacterium aurantiacum, UniProt A0A2H1K3G9); test: DTNB (Ellman's reagent) trapping of volatile thiol, […] nm; conditions: HBS, 3 h
T3 construct: gene BAUR9175_03070
T3 sequence (A0A2H1K3G9 14-406 limits assumed): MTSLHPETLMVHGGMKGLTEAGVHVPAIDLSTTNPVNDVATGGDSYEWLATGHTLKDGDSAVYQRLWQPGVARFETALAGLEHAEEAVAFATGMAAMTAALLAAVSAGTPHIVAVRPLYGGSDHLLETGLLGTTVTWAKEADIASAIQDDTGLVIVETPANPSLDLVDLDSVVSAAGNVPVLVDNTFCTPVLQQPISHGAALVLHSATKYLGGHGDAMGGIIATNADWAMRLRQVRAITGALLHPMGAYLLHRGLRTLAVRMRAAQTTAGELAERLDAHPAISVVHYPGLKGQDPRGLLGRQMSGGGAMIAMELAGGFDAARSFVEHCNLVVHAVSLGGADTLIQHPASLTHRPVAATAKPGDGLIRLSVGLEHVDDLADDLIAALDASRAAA

T2 sequence (Q9XXF9 entry or part of it): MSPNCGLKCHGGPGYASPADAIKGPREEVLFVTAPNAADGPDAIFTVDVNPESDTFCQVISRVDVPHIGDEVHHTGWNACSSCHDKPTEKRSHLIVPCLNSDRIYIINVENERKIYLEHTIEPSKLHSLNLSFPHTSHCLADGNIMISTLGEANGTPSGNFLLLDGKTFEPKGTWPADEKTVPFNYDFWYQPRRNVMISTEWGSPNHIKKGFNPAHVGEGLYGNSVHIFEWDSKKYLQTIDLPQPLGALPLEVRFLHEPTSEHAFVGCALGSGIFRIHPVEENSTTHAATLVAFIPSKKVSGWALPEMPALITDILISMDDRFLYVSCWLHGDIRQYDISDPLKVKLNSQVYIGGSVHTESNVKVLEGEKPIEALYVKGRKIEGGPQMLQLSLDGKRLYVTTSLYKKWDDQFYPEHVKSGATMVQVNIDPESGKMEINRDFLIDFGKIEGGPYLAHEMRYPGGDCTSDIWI

## CS [methanethiol]
SELENBP1; methanethiol generated in situ from L-methionine
  coupled MGL assay, H2S (lead acetate paper) and H2O2 (fluorometric): methanethiol and ethanethiol are by far the best SELENBP1 substrates
SEMO-1
  coupled MGL assay, H2S (lead acetate paper) and H2O2 (fluorometric): only the addition of cupric ions was capable of regenerating and even enhancing MTO activity

## CSCC[C@H](N)C(=O)O [L-methionine]
[1]; product methanethiol
  DTNB (Ellman's reagent) trapping of volatile thiol, 412 nm: MGL-mediated generation of methanethiol from methionine served as positive control

## N[C@@H](CCS)C(=O)O [L-homocysteine]
[1]; product H2S
  DTNB (Ellman's reagent) trapping of volatile thiol, 412 nm: ethanethiol, methaneselenol and H2S were generated by MGL-mediated elimination from their precursor amino acids

## CCS [ethanethiol]
SELENBP1; ethanethiol generated in situ from DL-ethionine
  coupled MGL assay, H2S (lead acetate paper) and H2O2 (fluorometric): methanethiol and ethanethiol are by far the best SELENBP1 substrates
